Test results taken from patent US20130197189A1, “Method For Synthesizing A Cyclic Multivalent Peptide Using A Thiol-Mediated Reaction” (The Regents of the University of Colorado, A Body Corporate, priority 2010, published 2013).
Read-outs that look alike come from different tables or passages of the source. *1 amine or outer side, *2 acyl side, *3 side chain or, on linkers, in order; H or OH if unused. Where a SMILES comes first, the peptide text is derived from it. Bridges are numbered along the chain shown (N, C = ends). [ ]: non-standard residue; d: D form. X2 = O=C(C1CC2CC1C([*:1])C2)[*:2]; X1 = O=C(OCCC[*:1])[*:2]

Legend:
GPIIb/IIIa = molecular target: T1, GPIIb/IIIa (Homo sapiens, UniProt P05106+P08514); test: Fibrinogen binding ELISA (competitive binding ELISA: inhibition of fibrinogen binding to GPIIb/IIIa)
T1 construct: purchased Enzyme Research Laboratories (South Bend, Ind.)
T1 sequence (P08514 32-887 limits assumed): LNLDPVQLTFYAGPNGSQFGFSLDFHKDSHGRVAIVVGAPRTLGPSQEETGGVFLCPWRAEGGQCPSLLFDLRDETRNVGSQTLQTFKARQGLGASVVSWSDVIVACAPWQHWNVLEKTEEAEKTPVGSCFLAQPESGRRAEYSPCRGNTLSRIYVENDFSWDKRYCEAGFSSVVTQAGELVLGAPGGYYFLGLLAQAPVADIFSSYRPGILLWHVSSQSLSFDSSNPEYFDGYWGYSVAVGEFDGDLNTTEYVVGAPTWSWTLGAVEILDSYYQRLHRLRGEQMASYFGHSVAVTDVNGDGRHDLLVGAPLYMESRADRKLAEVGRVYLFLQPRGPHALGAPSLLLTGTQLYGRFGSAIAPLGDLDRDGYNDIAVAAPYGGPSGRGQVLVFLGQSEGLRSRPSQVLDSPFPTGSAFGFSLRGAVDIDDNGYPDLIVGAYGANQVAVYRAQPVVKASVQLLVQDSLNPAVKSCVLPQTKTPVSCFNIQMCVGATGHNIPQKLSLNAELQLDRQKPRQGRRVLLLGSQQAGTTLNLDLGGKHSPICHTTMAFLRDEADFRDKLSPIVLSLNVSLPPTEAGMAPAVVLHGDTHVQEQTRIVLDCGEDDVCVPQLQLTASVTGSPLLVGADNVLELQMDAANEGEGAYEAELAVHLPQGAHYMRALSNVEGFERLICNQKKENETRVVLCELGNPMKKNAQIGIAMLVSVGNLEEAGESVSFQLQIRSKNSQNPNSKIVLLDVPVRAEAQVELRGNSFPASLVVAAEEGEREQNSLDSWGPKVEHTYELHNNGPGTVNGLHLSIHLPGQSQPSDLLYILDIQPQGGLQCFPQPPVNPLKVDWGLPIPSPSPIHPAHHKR
T1 sequence (P05106 27-788): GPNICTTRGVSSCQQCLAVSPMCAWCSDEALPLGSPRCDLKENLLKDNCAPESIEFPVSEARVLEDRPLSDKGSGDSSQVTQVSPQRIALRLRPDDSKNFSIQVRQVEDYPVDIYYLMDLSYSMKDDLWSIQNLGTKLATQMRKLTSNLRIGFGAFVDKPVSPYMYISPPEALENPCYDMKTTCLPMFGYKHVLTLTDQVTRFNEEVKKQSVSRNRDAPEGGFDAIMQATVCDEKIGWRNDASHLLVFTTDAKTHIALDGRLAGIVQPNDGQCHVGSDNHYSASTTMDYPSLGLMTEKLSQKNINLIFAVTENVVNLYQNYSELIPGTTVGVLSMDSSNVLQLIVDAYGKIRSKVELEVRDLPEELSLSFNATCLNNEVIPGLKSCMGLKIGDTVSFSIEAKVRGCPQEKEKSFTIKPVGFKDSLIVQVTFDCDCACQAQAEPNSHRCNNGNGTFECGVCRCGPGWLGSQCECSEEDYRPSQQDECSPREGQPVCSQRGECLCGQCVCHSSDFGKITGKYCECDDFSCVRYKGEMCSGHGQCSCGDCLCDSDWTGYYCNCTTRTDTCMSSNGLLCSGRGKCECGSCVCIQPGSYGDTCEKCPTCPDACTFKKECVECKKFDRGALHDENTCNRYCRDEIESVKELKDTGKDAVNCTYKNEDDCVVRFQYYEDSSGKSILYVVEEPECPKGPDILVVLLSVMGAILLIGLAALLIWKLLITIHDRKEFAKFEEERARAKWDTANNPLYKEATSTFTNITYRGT
Method: A 96-well Maxisorp plate (Nunc) was coated with GPIIb/IIIa (10 μg mL^−1, 100 μL) and incubated at 4° C. overnight. The plate was washed (5×) with buffer (50 mM Tris-HCl, 100 mM NaCl, 2 mM CaCl2, 0.05% Tween20, pH 7.4). Blocking solution (3.5% BSA, 100 μL) was added to the well and incubated at 37° C. for 3 hours. The plate was washed (5×) with buffer. Peptides (50 μL) and fibrinogen (40nM, 50 μL) were added to the plate and incubated at room temperature for 3 hours. The plate was washed (5×) and antibody (goat polyclonal to fibrinogen (HRP), 1:20,000 dilution, 100 μL) was added to the plate and incubated for 1 hour at room temperature. The plate was washed (5×) and substrate (2,2′-azino-bis(3-ethylbenzthiazoline-6-sulphonic acid, ABTS, 100 μL) was added to the wells and allowed to react for 5 minutes. The absorbance was measured (Perkin Elmer Wallac Victor2 1420 Multilabel Counter) at 405 nm. The data was analyzed using Graphpad Prism 5.
Glycoprotein Iib-IIIa (GPIIb/IIIa) is present on platelets and its binding to fibrinogen has been associated with platelet aggregation.
A competitive binding ELISA was used to determine the potency of the multivalent RGD peptides. GPIIb/IIIa is known to contain the integrins αIIβ and β3, which bind RGD peptide sequences. Fibrinogen is also known to bind to these integrins. The ELISA was performed to quantitate the inhibition of bound fibrinogen in the presence of RGD peptide. The ELISA was performed as described previously.4 Briefly, GPIIb/IIIa was incubated in a 96 well Maxisorp plate (Nunc) (10 μg ml^−1) overnight at 4° C. The plate was blocked for non-specific interactions using BSA (3.5 wt%, 3 hr). Varying peptides concentrations and fibrinogen (40 nM) was incubated in the plate for 3 hr at room temperature. Fibrinogen antibody (HRP) (1:20,000 dilution) as added (1 hr). The substrate (2,2′-Azinobis[3-ethylbenzothiazoline-6-sulfonic acid]-diammonium salt-ABTS) was added and the absorbance measured at 405 nm. Peptide concentrations are reported as total molecule molarity as opposed to normalized [RGD].

MIN6 cells = MIN6 cells encapsulated in PEG diacrylate gels with RGD, metabolic activity by Alamar Blue assay; format: cell-based; details: FIG. 19; for MIN6 viability / cell survival: 100 μM RGD in PEG gel, 10-day study
Excerpt: To test whether cyclic RGD, when encapsulated in PEG gels may enhance the survival of MIN6 cells, cyclic RGD was incorporated into PEG gels and applied to cell cultures of MIN6 cells. A cyclic RGD dimer was synthesized on-resin using Traut's reagent. The dimer contained a free thiol, which could be utilized for conjugation into PEG networks via thiol-acrylate photopolymerizations.
To examine whether the cyclic RGD derivatives could enhance cell viability, MIN6 cells were encapsulated at a relatively low density (5×10^6 cells mL^−1, data not published) in PEG diacrylate gels with varying amounts of RGD. Cell metabolic activity was measured using an Alamar Blue assay. […] Total molar RGD concentration was held constant during the study.

Compound | IC50 (GPIIb/IIIa) [µM] | potency relative to linear RGD (compound #1) (GPIIb/IIIa; competitive binding ELISA) | MIN6 viability / cell survival (MIN6 cells) | MIN6 metabolic activity relative to linear counterpart at the same concentration (MIN6 cells; 400 μM RGD in PEG gel, 5×10^6 cells mL^−1) | IC50 (GPIIb/IIIa; Table 2, mean ± SEM, triplicate, repeated twice, peptide concentration as total molecule molarity, not normalized [RGD], read-out: IC50(μM), inhibition of fibrinogen binding to GPIIb/IIIa) [µM]
CC(=O)N[C@H]1CSC2CC3CC(C(=O)NCCCC[C@@H](C(N)=O)NC(=O)[C@@H](Cc4ccccc4)NC(=O)[C@H](CO)NC(=O)[C@H](CC(=O)O)NC(=O)CNC(=O)[C@H](CCCNC(=N)N)NC1=O)C2C3 (stereo partly shown) [Ac-c[CRGDSfK(Norbornene)]-NH2] (Ac-CRGDS[dF]K-NH2; linker 1-7 via X2) | 0.36 ± 0.09 |  |  |  | 
N=C(N)NCCC[C@@H]1NC(=O)[C@@H](NC(=O)CNC(=O)CNC(=O)[C@@H](N)CS)CSCCCOC(=O)NCCCC[C@@H](C(N)=O)NC(=O)[C@@H](Cc2ccccc2)NC(=O)[C@H](CO)NC(=O)[C@H](CC(=O)O)NC(=O)CNC1=O [Compound #2, H-CGGc[CRGDSfK(Alloc)]-NH2] (H-CGGCRGDS[dF]K-NH2; linker 4-10 via X1) |  | enhanced potency | increased viability | significantly enhanced metabolic activity | 
N=C(N)NCCC[C@@H]1NC(=O)[C@@H](NC(=O)CNC(=O)CNC(=O)[C@@H](N)CSCC(CCC(=O)NCCCC[C@H](NC(=O)CN)C(=O)NCC(=O)NCCCCCC(=O)NCC(=O)N[C@@H](CCCCNC(=O)CCC(CSC[C@H](N)C(=O)NCC(=O)NCC(=O)N[C@H]2CSCCCOC(=O)NCCCC[C@@H](C(N)=O)NC(=O)[C@@H](Cc3ccccc3)NC(=O)[C@H](CO)NC(=O)[C@H](CC(=O)O)NC(=O)CNC(=O)[C@H](CCCNC(=N)N)NC2=O)SC[C@H](N)C(=O)NCC(=O)NCC(=O)N[C@H]2CSCCCOC(=O)NCCCC[C@@H](C(N)=O)NC(=O)[C@@H](Cc3ccccc3)NC(=O)[C@H](CO)NC(=O)[C@H](CC(=O)O)NC(=O)CNC(=O)[C@H](CCCNC(=N)N)NC2=O)C(=O)NCC(N)=O)SC[C@H](N)C(=O)NCC(=O)NCC(=O)N[C@H]2CSCCCOC(=O)NCCCC[C@@H](C(N)=O)NC(=O)[C@@H](Cc3ccccc3)NC(=O)[C@H](CO)NC(=O)[C@H](CC(=O)O)NC(=O)CNC(=O)[C@H](CCCNC(=N)N)NC2=O)CSCCCOC(=O)NCCCC[C@@H](C(N)=O)NC(=O)[C@@H](Cc2ccccc2)NC(=O)[C@H](CO)NC(=O)[C@H](CC(=O)O)NC(=O)CNC1=O (stereo partly shown) [Compound #7] | 0.012 ± 0.003 |  |  |  | 
H-CGGRGDS-NH2 [Compound #1, H-CGGRGDS-NH2] |  |  | not able to support cell survival |  | 15.4 ± 4.2
